Experimental findings from patent publication US20170275298A1, “INHIBITORS OF THE RENAL OUTER MEDULLARY POTASSIUM CHANNEL” (Merck Sharp & Dohme Corp., priority 2014, published 2017) are described below.

The structures appear in SMILES notation.

This test has as its target T1, hROMK (hKir1.1) (Homo sapiens, UniProt P48048).
T1 construct: expressed in transfected cells
T1 sequence (P48048 1-391): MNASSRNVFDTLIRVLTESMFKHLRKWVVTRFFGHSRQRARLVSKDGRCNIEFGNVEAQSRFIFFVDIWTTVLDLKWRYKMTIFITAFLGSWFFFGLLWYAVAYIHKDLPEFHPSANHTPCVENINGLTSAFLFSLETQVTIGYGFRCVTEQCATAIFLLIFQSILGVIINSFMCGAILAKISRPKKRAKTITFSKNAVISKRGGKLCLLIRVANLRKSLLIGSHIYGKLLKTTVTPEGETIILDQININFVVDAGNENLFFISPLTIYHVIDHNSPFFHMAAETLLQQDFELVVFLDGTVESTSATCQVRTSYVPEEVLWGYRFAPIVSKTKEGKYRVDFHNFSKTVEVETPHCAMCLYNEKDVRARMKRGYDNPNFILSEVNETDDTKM
As to the kind of experiment: Thallium Flux Assay (ROMK channel functional thallium flux assay). The following applies: HEK293 cells stably expressing hROMK (hKir1.1); FluxOR thallium flux, FLIPR-Tetra, 30 min compound incubation; read-out: ROMK TI IC50. The format is cell-based. In outline: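 HEK293 cells stably expressing hROMK (hKir1.1) loaded with FluxOR dye 90 min at ambient temperature, then compound 30 min before thallium/potassium stimulant (final 3 mM Tl/0.3 mM K). ROMK-sensitive flux defined by 3 μM standard inhibitor; data as % fluorescence change.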
The term IC50 denotes the concentration at which inhibition is half-maximal. As to `O=C1N(c2ccns2)CCC12CCN(C[C@H](O)c1ccc(-n3cnnn3)nc1)CC2` [Example 100, (R)-8-(2-(6-(1H-tetrazol-1-yl)pyridin-3-yl)-2-hydroxyethyl)-2-(isothiazol-5-yl)-2,8-diazaspiro[4.5]decan-1-one], the IC50 worked out at 769 nM.
The same measure for `O=C1N(c2ccns2)CCC12CCN(C[C@@H](O)c1ccc(-n3cnnn3)nc1)CC2` [Example 101, (S)-8-(2-(6-(1H-tetrazol-1-yl)pyridin-3-yl)-2-hydroxyethyl)-2-(isothiazol-5-yl)-2,8-diazaspiro[4.5]decan-1-one]: 203 nM; for `Cc1c([C@@H](O)CN2CCC3(CC2)OCCN(c2ccc(=O)n(C)n2)C3=O)ccc2c1COC2=O` [Example 102, (R)-9-(2-hydroxy-2-(4-methyl-1-oxo-1,3-dihydroisobenzofuran-5-yl)ethyl)-4-(1-methyl-6-oxo-1,6-dihydropyridazin-3-yl)-1-oxa-4,9-diazaspiro[5.5]undecan-5-one]: 349 nM.
For `Cc1c([C@@H](O)CN2CCC3(CC2)CCN(c2sncc2Br)C3=O)ccc2c1COC2=O` [Example 103, (R)-2-(4-bromoisothiazol-5-yl)-8-(2-hydroxy-2-(4-methyl-1-oxo-1,3-dihydroisobenzofuran-5-yl)ethyl)-2,8-diazaspiro[4.5]decan-1-one], the 50% inhibitory concentration (IC50) was determined as 61.4 nM.
As for `Cc1cnsc1N1CCC2(CCN(C[C@H](O)c3ccc4c(c3C)COC4=O)CC2)C1=O` [Example 104, (R)-8-(2-hydroxy-2-(4-methyl-1-oxo-1,3-dihydroisobenzofuran-5-yl)ethyl)-2-(4-methylisothiazol-5-yl)-2,8-diazaspiro[4.5]decan-1-one], the IC50 turned out to be 65.5 nM.
The same measure for `Cc1c([C@@H](O)CN2CCC3(CC2)CCN(c2sncc2Cl)C3=O)ccc2c1COC2=O` [Example 105, (R)-2-(4-chloroisothiazol-5-yl)-8-(2-hydroxy-2-(4-methyl-1-oxo-1,3-dihydroisobenzofuran-5-yl)ethyl)-2,8-diazaspiro[4.5]decan-1-one]: 54.2 nM.
For `Cc1c([C@@H](O)CN2CCC3(CC2)NCCN(c2ccc(=O)n(C)n2)C3=O)ccc2c1COC2=O` [Example 106, (R)-9-(2-hydroxy-2-(4-methyl-1-oxo-1,3-dihydroisobenzofuran-5-yl)ethyl)-4-(1-methyl-6-oxo-1,6-dihydropyridazin-3-yl)-1,4,9-triazaspiro[5.5]undecan-5-one], the IC50 worked out at 361 nM.
For `Cc1c([C@@H](O)[C@H](C)N2CCC3(CCN(c4ccc(=O)n(C)n4)C3=O)CC2)ccc2c1COC2=O` [Example 107, 8-((1R,2S)-1-hydroxy-1-(4-methyl-1-oxo-1,3-dihydroisobenzofuran-5-yl)propan-2-yl)-2-(1-methyl-6-oxo-1,6-dihydropyridazin-3-yl)-2,8-diazaspiro[4.5]decan-1-one] the value was 42 nM.
The same measure for `Cc1c([C@@H](O)[C@@H](C)N2CCC3(CCN(c4ccc(=O)n(C)n4)C3=O)CC2)ccc2c1COC2=O` [Example 108, 8-((1R,2R)-1-hydroxy-1-(4-methyl-1-oxo-1,3-dihydroisobenzofuran-5-yl)propan-2-yl)-2-(1-methyl-6-oxo-1,6-dihydropyridazin-3-yl)-2,8-diazaspiro[4.5]decan-1-one]: 56 nM.
As to `Cc1c(C(O)C(C)N2CCC3(CCN(c4ccc(=O)n(C)n4)C3=O)CC2)ccc2c1COC2=O` [Example 109, 8-41S,2S)-1-hydroxy-1-(4-methyl-1-oxo-1,3-dihydroisobenzofuran-5-yl)propan-2-yl)-2-(1-methyl-6-oxo-1,6-dihydropyridazin-3-yl)-2,8-diazaspiro[4.5]decan-1-one], the IC50 amounted to 20 nM.
Take `Cc1c([C@@H](O)CN2CCC3(CC2)CCN(c2cnn(C)c(=O)c2)CC3)ccc2c1COC2=O` [Example 110, (R)-5-(9-(2-hydroxy-2-(4-methyl-1-oxo-1,3-dihydroisobenzofuran-5-yl)ethyl)-3,9-diazaspiro[5.5]undecan-3-yl)-2-methylpyridazin-3(2H)-one]: the IC50 came out at 279 nM.
As for `Cc1c([C@@H](O)CN2CCC3(CC2)CCN(c2cncc(F)c2)CC3)ccc2c1COC2=O` [Example 111, 9-(5-fluoropyridin-3-yl)-3-[(2R)-2-hydroxy-2-(4-methyl-1-oxo-1,3-dihydro-2-benzofuran-5-yl)ethyl]-9-aza-3-azoniaspiro[5.5]undecane], the IC50 is 185 nM.
For the compound `Cc1c([C@@H](O)CN2CCC3(CC2)CCN(c2ccccn2)CC3)ccc2c1COC2=O` [Example 112, 3-[(2R)-2-hydroxy-2-(4-methyl-1-oxo-1,3-dihydro-2-benzofuran-5-yl)ethyl]-9-pyridin-2-yl-9-aza-3-azoniaspiro[5.5]undecane], the IC50 came out at 282 nM.
Take `Cc1c([C@@H](O)CN2CCC3(CC2)CCN(c2ccc(=O)n(C)n2)CC3)ccc2c1COC2=O` [Example 113, (R)-6-(9-(2-hydroxy-2-(4-methyl-1-oxo-1,3-dihydroisobenzofuran-5-yl)ethyl)-3,9-diazaspiro[5.5]undecan-3-yl)-2-methylpyridazin-3(2H)-one]: the IC50 worked out at 616 nM.
Regarding `COc1ccnc(N2CCC3(CCN(C[C@H](O)c4ccc5c(c4C)COC5=O)CC3)CC2)n1` [Example 114, (R)-5-(1-hydroxy-2-(9-(4-methoxypyrimidin-2-yl)-3,9-diazaspiro[5.5]undecan-3-yl)ethyl)-4-methylisobenzofuran-1(3H)-one], the IC50 was found to be 384 nM.
In the case of `Cc1c([C@@H](O)CN2CCC3(CC2)CCN(c2ccc(C(F)(F)F)cn2)CC3)ccc2c1COC2=O` [Example 115, (R)-5-(1-hydroxy-2-(9-(5-(trifluoromethyl)pyridin-2-yl)-3,9-diazaspiro[5.5]undecan-3-yl)ethyl)-4-methylisobenzofuran-1(3H)-one], the IC50 was 225 nM.
For `Cc1c([C@@H](O)CN2CCC3(CC2)CCN(c2cnccn2)CC3)ccc2c1COC2=O` [Example 116, (R)-5-(1-hydroxy-2-(9-(pyrazin-2-yl)-3,9-diazaspiro[5.5]undecan-3-yl)ethyl)-4-methylisobenzofuran-1(3H)-one], the IC50 stood at 6.28 nM.
For `Cc1c([C@@H](O)CN2CCC3(CC2)CCN(c2cc(F)ncn2)CC3)ccc2c1COC2=O` [Example 117, (R)-5-(2-(9-(6-fluoropyrimidin-4-yl)-3,9-diazaspiro[5.5]undecan-3-yl)-1-hydroxyethyl)-4-methylisobenzofuran-1(3H)-one] the value was 403 nM; for `COc1cnc(N2CCC3(CCN(C[C@H](O)c4ccc5c(c4C)COC5=O)CC3)CC2)nc1` [Example 118, (R)-5-(1-hydroxy-2-(9-(5-methoxypyrimidin-2-yl)-3,9-diazaspiro[5.5]undecan-3-yl)ethyl)-4-methylisobenzofuran-1(3H)-one], 125 nM.
For the compound `Cc1c([C@@H](O)CN2CCC3(CC2)CCN(c2ncc(C(F)(F)F)cc2F)CC3)ccc2c1COC2=O` [Example 119, (R)-5-(2-(9-(3-fluoro-5-(trifluoromethyl)pyridin-2-yl)-3,9-diazaspiro[5.5]undecan-3-yl)-1-hydroxyethyl)-4-methylisobenzofuran-1(3H)-one], the IC50 turned out to be 967 nM.
With `Cc1c([C@@H](O)CN2CCC3(CC2)CCN(c2cnc(C(=O)O)cn2)CC3)ccc2c1COC2=O` [Example 120, (R)-5-(9-(2-hydroxy-2-(4-methyl-1-oxo-1,3-dihydroisobenzofuran-5-yl)ethyl)-3,9-diazaspiro[5.5]undecan-3-yl)pyrazine-2-carboxylic acid], the IC50 was 236 nM.
On to `Cc1c([C@@H](O)CN2CCC3(CC2)CCN(c2cncc(C(=O)O)n2)CC3)ccc2c1COC2=O` [Example 121, (R)-6-(9-(2-hydroxy-2-(4-methyl-1-oxo-1,3-dihydroisobenzofuran-5-yl)ethyl)-3,9-diazaspiro[5.5]undecan-3-yl)pyrazine-2-carboxylic acid], for which the IC50 was determined as 314 nM.
In the case of `Cc1c([C@@H](O)CN2CCC3(CC2)CCN(c2nccnc2N)CC3)ccc2c1COC2=O` [Example 122, (R)-5-(2-(9-(3-aminopyrazin-2-yl)-3,9-diazaspiro[5.5]undecan-3-yl)-1-hydroxyethyl)-4-methylisobenzofuran-1(3H)-one], the IC50 was found to be 160 nM.
For `Cc1c([C@@H](O)CN2CCC3(CC2)CCN(c2ccc(Cl)nn2)CC3)ccc2c1COC2=O` [Example 123, (R)-5-(2-(9-(6-chloropyridazin-3-yl)-3,9-diazaspiro[5.5]undecan-3-yl)-1-hydroxyethyl)-4-methylisobenzofuran-1(3H)-one], the IC50 stood at 8.45 nM.
The same measure for `Cc1ccc(N2CCC3(CCN(C[C@H](O)c4ccc5c(c4C)COC5=O)CC3)CC2)nn1` [Example 124, (R)-5-(1-hydroxy-2-(9-(6-methylpyridazin-3-yl)-3,9-diazaspiro[5.5]undecan-3-yl)ethyl)-4-methylisobenzofuran-1(3H)-one]: 37.1 nM; for `Cc1c([C@@H](O)CN2CCC3(CC2)CCN(c2cnc(C(F)(F)F)cn2)CC3)ccc2c1COC2=O` [Example 125, (R)-5-(1-hydroxy-2-(9-(5-(trifluoromethyl)pyrazin-2-yl)-3,9-diazaspiro[5.5]undecan-3-yl)ethyl)-4-methylisobenzofuran-1(3H)-one]: 492 nM; for `Cc1c([C@@H](O)CN2CCC3(CC2)CCN(c2cncc(Cl)n2)CC3)ccc2c1COC2=O` [Example 126, (R)-5-(2-(9-(6-chloropyrazin-2-yl)-3,9-diazaspiro[5.5]undecan-3-yl)-1-hydroxyethyl)-4-methylisobenzofuran-1(3H)-one]: 281 nM.
